This passage reports DC50 results from patent publication US20240383908A1, “SYNTHESIS AND APPLICATION OF PHOSPHATASE DEGRADER” (HINOVA PHARMACEUTICALS INC., priority 2021, published 2024).

In this experiment the target is T1, SHP2 protein (Homo sapiens, UniProt Q06124).
T1 sequence (Q06124 1-593): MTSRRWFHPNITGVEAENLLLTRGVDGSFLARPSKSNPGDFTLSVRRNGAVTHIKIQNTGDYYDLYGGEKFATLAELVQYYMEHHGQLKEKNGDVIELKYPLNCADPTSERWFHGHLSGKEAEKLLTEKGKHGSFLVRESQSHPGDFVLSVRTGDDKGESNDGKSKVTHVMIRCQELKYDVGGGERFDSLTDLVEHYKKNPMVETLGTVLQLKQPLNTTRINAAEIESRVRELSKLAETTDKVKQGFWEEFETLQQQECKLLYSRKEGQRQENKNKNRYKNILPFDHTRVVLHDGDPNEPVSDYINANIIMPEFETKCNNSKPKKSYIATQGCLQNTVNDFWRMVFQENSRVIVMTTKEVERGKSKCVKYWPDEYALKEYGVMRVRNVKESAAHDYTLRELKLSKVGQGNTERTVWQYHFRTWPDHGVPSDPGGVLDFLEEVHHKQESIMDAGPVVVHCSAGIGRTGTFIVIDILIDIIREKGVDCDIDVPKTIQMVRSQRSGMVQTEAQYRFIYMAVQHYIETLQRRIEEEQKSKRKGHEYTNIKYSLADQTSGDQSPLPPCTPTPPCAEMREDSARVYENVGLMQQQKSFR
In words: Degradation activity on SHP2 protein in MV-411 cells (Western blot, DC50). Type of experiment: cell-based. Also noted: endogenous in cells. The following applies: MV411 cells, 24 hours, read-out: Degradation activity for differenct cell lines MV411 (DC50). On the procedure: • MV-411 cell line (COBIER, CBP-60522) • FBS (GEMINI, Cat. No. 900-108) • 0.01M PBS (Biosharp, Cat. No. 162262) • IMDM (Hyclone, Cat. No. SH30228.01) • Penicillin-Streptomycin (Gibco, Cat. No. 15140122) • DMSO (Sigma, Cat. No. D5879) • Centrifuge Tube, 15 ml (Excell Bio, Cat. No. CS015-0001) • Cell Culture Dish, (WHB, Cat. No. CS016-0128) • 12-well cell culture cluster (Corning, Cat. No. 3513) • RIPA lysate buffer (Thermo, Cat. No. 89900) • Protein Loding Buffer (Beyotime, Cat. No. P0015L) • BCA Protein Assay Kit (EpiZyme, Cat. No. ZJ102) • SDS-PAGE Fast Preparation Kit (EpiZyme, Cat. No. PG112) • Anti-GAPDH (14C10) Rabbit mAb (CST, Cat. No. 2118L) • Anti-SHP2 rabbit mAb (CST, Cat. No. 37525) • Peroxidase Affinipure (HRP) Goat Anti-Rabbit IgG (Zen Bioscience, Cat. No. 511203) • TBST (Biosharp, Cat. No. BL601A) • ECL chemiluminescence kit (4A Biotech, Cat. No. 4AW011-200)
• (1) Cell culture medium: IMIDM medium+10% FBS+1% Pen Strep; • (2) PBS buffer: PBS powder was dissolved in 2 L of ultrapure water and sterilized; • (3) Cell lysate: RIPA lysate buffer is added with protease inhibitors at a ratio of 1:1000 before use.
(1) MV-411 cells were cultured in the cell culture medium, and then well-growing cells were selected and inoculated in a 12-well plate, with 1 mL/well and 1×10^6 cells/well. The plate was incubated overnight in a 5% CO2 cell incubator at 37° C.
(2) 10 mM storage solution of each drug was prepared using dimethylsulfoxide (DMSO). The stock solution was diluted gradually with DMSO before use, and then 1 μL of the compound solution was added to the cell culture well (to ensure that the DMSO concentration in the culture system was […]), so that the final drug concentration is 100 nM, 10 nM, 3 nM, 1 nM, 0.3 nM, and 0.1 nM. Two wells were set for each concentration. The plate was gently shaken and mixed. Additionally, negative control wells (containing an equal amount of DMSO) and positive control wells were included.
(3) After 24 hours of cultivation, the cells were lysed using RIPA cell lysate, and the proteins were extracted. The protein concentration was measured using a BCA assay kit. 5× concentrated protein buffer was loaded, heated at 100° C. for 5 min, and then the sample was stored at −20° C.
(4) For each well, 30 μg of protein was loaded to polyacrylamide gel for electrophoresis.
(5) The protein was transferred from polyacrylamide gel to PVDF membrane, and sealed at room temperature with 5% skimmed milk for 1 h, which was then incubated with the primary antibodies (Anti-SHP2 rabbit mAb and Anti-GAPDH rabbit mAb) at 4° C. overnight. The membrane was washed three times with TBST solution, 10 minutes for each time. After that, the membrane was incubated with the secondary antibodies (horseradish peroxidase labeled goat anti-rabbit IgG) at room temperature for 2 h, and then washed three times with TBST solution, 10 minutes for each time, followed by exposure.
(6) The images were analyzed with Image J grayscale, and the degradation ratio of protein bands in the test group was calculated, based on the negative control group (DMSO) (100%).
(7) Using the Dose-response-inhibition equation in the data processing software GraphPad Prism 8, the DC50 value was obtained (which represents the drug concentration corresponding to 50% degradation of the target protein).
Finally, ECL detection solution was added for color development, and photos were taken with an automatic chemiluminescence instrument, so as to collect images and analyze them.
Consider `CC1(N)CCN(c2cnc(Sc3cccc(NC(=O)C4CN(CCCCCCCCCCC(=O)NCc5ccc6c(c5)CN(C5CCC(=O)NC5=O)C6=O)C4)c3)cn2)CC1` (stereo not drawn) [Compound 43], for which the DC50 (in general, the concentration at which degradation of the target reaches its halfway point) is more than 1000 nM.

As to `Cc1ncsc1-c1ccc([C@H](C)NC(=O)[C@@H]2C[C@@H](O)CN2C(=O)[C@@H](NC(=O)CCCCCCCCCCN2CC(C(=O)Nc3cccc(Sc4cnc(N5CCC(C)(N)CC5)cn4)c3)C2)C(C)(C)C)cc1` [Compound 44], the DC50 fell in the range of 100 to 1000 nM. In the case of `CC1(N)CCN(c2cnc(Sc3cccc(NC(=O)CCN4CC5(CCN(CCCCCC(=O)NCc6cccc7c6CN(C6CCC(=O)NC6=O)C7=O)C5)C4)c3)cn2)CC1` (stereo not drawn) [Compound 45], the DC50 lay in the range of 100 to 1000 nM. In the case of `Cc1ncsc1-c1ccc([C@H](C)NC(=O)[C@@H]2C[C@@H](O)CN2C(=O)[C@@H](NC(=O)c2cnc(N3CCN(CCCCCCCCC(=O)Nc4cccc(Sc5cnc(N6CCC(C)(N)CC6)cn5)c4)CC3)nc2)C(C)(C)C)cc1` [Compound 47], the DC50 is less than 100 nM. The value for `Cc1ncsc1-c1ccc([C@H](C)NC(=O)[C@@H]2C[C@@H](O)CN2C(=O)[C@@H](NC(=O)CCCCCCCCCCC(=O)Nc2cccc(Sc3cnc(N4CCC(C)(N)CC4)cn3)c2)C(C)(C)C)cc1` [Compound 49] was less than 100 nM. Take `Cc1ncsc1-c1ccc([C@H](C)NC(=O)[C@@H]2C[C@@H](O)CN2C(=O)[C@@H](NC(=O)CCCCCCCCCCCCC(=O)Nc2cccc(Sc3cnc(N4CCC(C)(N)CC4)cn3)c2)C(C)(C)C)cc1` [Compound 50]: the DC50 is less than 100 nM. In the case of `Cc1ncsc1-c1ccc([C@H](C)NC(=O)[C@@H]2C[C@@H](O)CN2C(=O)[C@@H](NC(=O)CCCCCCCCCCCCCCC(=O)Nc2cccc(Sc3cnc(N4CCC(C)(N)CC4)cn3)c2)C(C)(C)C)cc1` [Compound 51], the DC50 is less than 100 nM. The value for `Cc1ncsc1-c1ccc([C@H](C)NC(=O)[C@@H]2C[C@@H](O)CN2C(=O)[C@@H](NC(=O)CCCCCCCCC(=O)Nc2cccc(Sc3cnc(N4CCC(C)(N)CC4)cn3)c2)C(C)(C)C)cc1` [Compound 52] was less than 100 nM. The same measure for `CC1(N)CCN(c2cnc(Sc3cccc(NC(=O)CCCCCCCCC(=O)NCc4ccc5c(c4)CN(C4CCC(=O)NC4=O)C5=O)c3)cn2)CC1` (stereo not drawn) [Compound 53]: more than 1000 nM; for `Cc1ncsc1-c1ccc([C@H](C)NC(=O)[C@@H]2C[C@@H](O)CN2C(=O)[C@@H](NC(=O)CCCCCCCCN2CCN(C(=O)/C=C/C(=O)Nc3cccc(Sc4cnc(N5CCC(C)(N)CC5)cn4)c3)CC2)C(C)(C)C)cc1` [Compound 54]: less than 100 nM; for `Cc1ncsc1-c1ccc([C@H](C)NC(=O)[C@@H]2C[C@@H](O)CN2C(=O)[C@@H](NC(=O)CCCCCCCCCC(=O)Nc2cccc(Sc3cnc(N4CCC(C)(N)CC4)cn3)c2)C(C)(C)C)cc1` [Compound 56]: more than 1000 nM. The value for `CC1(N)CCN(c2cnc(Sc3cccc(NC(=O)CCCCCCCCCC(=O)NCc4ccc5c(c4)CN(C4CCC(=O)NC4=O)C5=O)c3)cn2)CC1` (stereo not drawn) [Compound 57] was more than 1000 nM; that for `Cc1ncsc1-c1ccc([C@H](C)NC(=O)[C@@H]2C[C@@H](O)CN2C(=O)[C@@H](NC(=O)CCCCCCCCCCCC(=O)Nc2cccc(Sc3cnc(N4CCC(C)(N)CC4)cn3)c2)C(C)(C)C)cc1` [Compound 58] was 100 to 1000 nM. `Cc1ncsc1-c1ccc([C@H](C)NC(=O)[C@@H]2C[C@@H](O)CN2C(=O)[C@@H](NC(=O)c2cnc(N3CCN(CCCCCCCCC(=O)Nc4cccc(Sc5cnc(N6CCC(C)(C(N)=O)CC6)cn5)c4)CC3)nc2)C(C)(C)C)cc1` [Compound 60]: the half-maximal degradation concentration (DC50) is more than 1000 nM. The value for `CC1(C(N)=O)CCN(c2cnc(Sc3cccc(NC(=O)CCCCCCCCN4CCN(c5ncc(C(=O)NCc6cccc7c6CN(C6CCC(=O)NC6=O)C7=O)cn5)CC4)c3)cn2)CC1` (stereo not drawn) [Compound 61] was more than 1000 nM; that for `Cc1ncsc1-c1ccc([C@H](C)NC(=O)[C@@H]2C[C@@H](O)CN2C(=O)[C@@H](NC(=O)c2ccc(N3CCN(CCCCCCCCC(=O)Nc4cccc(Sc5cnc(N6CCC(C)(N)CC6)cn5)c4)CC3)nn2)C(C)(C)C)cc1` [Compound 62] was 100 to 1000 nM.

As for `CC1(N)CCN(c2cnc(Sc3cccc(NC(=O)CCN4CC5(CCN(c6ncc(C(=O)NCc7ccc8c(c7)CN(C7CCC(=O)NC7=O)C8=O)cn6)C5)C4)c3)cn2)CC1` (stereo not drawn) [Compound 65], the DC50 was less than 100 nM. `Cc1ncsc1-c1ccc([C@H](C)NC(=O)[C@@H]2C[C@@H](O)CN2C(=O)[C@@H](NC(=O)c2cnc(N3CCN(CCOCCOCC(=O)Nc4cccc(Sc5cnc(N6CCC(C)(N)CC6)cn5)c4)CC3)nc2)C(C)(C)C)cc1` [Compound 66]: the DC50 was less than 100 nM. Consider `CC1(N)CCN(c2cnc(Sc3cccc(NC(=O)COCCOCCN4CCN(c5ncc(C(=O)NCc6ccc7c(c6)CN(C6CCC(=O)NC6=O)C7=O)cn5)CC4)c3)cn2)CC1` (stereo not drawn) [Compound 67], for which the DC50 is more than 1000 nM.

Take `CC1(N)CCN(c2cnc(Sc3cccc(NC(=O)CCCCCCCN4CC5(CCN(Cc6ccc(COc7cccc8c7CN(C7CCC(=O)NC7=O)C8=O)cc6)C5)C4)c3)cn2)CC1` (stereo not drawn) [Compound 68]: the 50% degradation concentration (DC50) was less than 100 nM.

As to `CC1(N)CCN(c2cnc(Sc3cccc(NC(=O)CCN4CC5(CCN(Cc6ccc(COc7cccc8c7CN(C7CCC(=O)NC7=O)C8=O)cc6)C5)C4)c3)cn2)CC1` (stereo not drawn) [Compound 69], the DC50 is more than 1000 nM. On to `CC1(N)CCN(c2cnc(Sc3cccc(NC(=O)CCCCCCCN4CC5(CCN(c6ncc(C(=O)NCc7ccc8c(c7)CN(C7CCC(=O)NC7=O)C8=O)cn6)C5)C4)c3)cn2)CC1` (stereo not drawn) [Compound 70], for which the DC50 is less than 100 nM. On to `Cc1ncsc1-c1ccc([C@H](C)NC(=O)[C@@H]2C[C@@H](O)CN2C(=O)[C@@H](NC(=O)c2cnc(N3CCC4(CN(CCCCCCCC(=O)Nc5cccc(Sc6cnc(N7CCC(C)(N)CC7)cn6)c5)C4)C3)nc2)C(C)(C)C)cc1` [Compound 71], for which the DC50 was less than 100 nM. The same measure for `CC1(N)CCN(c2cnc(Sc3cccc(NC(=O)CCCCCCCN4CCN(c5ncc(C(=O)NCc6ccc7c(c6)CN(C6CCC(=O)NC6=O)C7=O)cn5)CC4)c3)cn2)CC1` (stereo not drawn) [Compound 72]: less than 100 nM.

In the case of `Cc1ncsc1-c1ccc([C@H](C)NC(=O)[C@@H]2C[C@@H](O)CN2C(=O)[C@@H](NC(=O)c2cnc(N3CCN(CCCCCCCC(=O)Nc4cccc(Sc5cnc(N6CCC(C)(N)CC6)cn5)c4)CC3)nc2)C(C)(C)C)cc1` [Compound 73], the DC50 is less than 100 nM. The same measure for `Cc1ncsc1-c1ccc([C@H](C)NC(=O)[C@@H]2C[C@@H](O)CN2C(=O)[C@@H](NC(=O)CCCCCCCCN2CCN(C(=O)C3CC3C(=O)Nc3cccc(Sc4cnc(N5CCC(C)(N)CC5)cn4)c3)CC2)C(C)(C)C)cc1` (stereo partly drawn) [Compound 77]: less than 100 nM. The same measure for `Cc1cc(C(=O)NCc2ccc3c(c2)CN(C2CCC(=O)NC2=O)C3=O)n(C2CCN(CCCCCCCCC(=O)Nc3cccc(Sc4cnc(N5CCC(C)(N)CC5)cn4)c3)CC2)n1` (stereo not drawn) [Compound 80]: less than 100 nM.
